Results on 24 substances are retold here after US7569554B2, “Synergistic treatment of cancer using immunomers in conjunction with therapeutic agents” (Idera Pharmaceuticals, Inc., priority 2003, dated 2009).

The test system of data set [1] is BALB/c mice. Nature of the data set: In vivo serum cytokine induction. On the set-up: species or system mouse. The note with it: 4 hrs. As to the method:
To assess serum cytokine levels, BALB/c mice (n=5) were injected intraperitoneally (i.p), subcutaneously (s.c) or intramuscularly (i.m) with IMO compounds at 10 mg/kg (single dose). Sera was collected by retro-orbital bleeding at 4 hrs of IMO administration and determined IL-112 and IL-6 by sandwich ELISA. Cytokine antibodies and standards were purchased from PharMingen (San Diego, Calif.).
To evaluate the immunopharmacological effects in vivo, IMO compounds, CpG immunomers, and non-CpG oligos were administered to BALB/c mice i.p, s.c or i.m at a dose of 10 mg/kg and their serum was evaluated for IL-12 and IL-6 after 4 hrs.

Data set [2] concerns vertebrate cells, preferably BALB/c mouse spleen cells or human PBMC. Nature of the data set: Immunostimulatory activity, IL-12/IL-6 secretion (Tables 9-12, cell culture not given). Format: cell-based. As to the method:
(§1) The secretion of IL-12 and IL-6 in vertebrate cells, preferably BALB/c mouse spleen cells or human PBMC, was measured by sandwich ELISA. The required reagents including cytokine antibodies and cytokine standards were purchased form PharMingen, San Diego, Calif. ELISA plates (Costar) were incubated with appropriate antibodies at 5 μg/mL in PBSN buffer (PBS/0.05% sodium azide, pH 9.6) overnight at 4° C. and then blocked with PBS/i % BSA at 37° C. for 30 minutes. Cell culture supernatants and cytokine standards were appropriately diluted with PBS/10% FBS, added to the plates in triplicate, and incubated at 25° C. for 2 hours. Plates were overlaid with 1 μg/mL appropriate biotinylated antibody and incubated at 25° C. for 1.5 hours. The plates were then washed extensively with PBS-T Buffer (PBS/0.05% Tween 20) and further incubated at 25° C. for 1.5 hours after adding streptavidin conjugated peroxidase (Sigma, St. Louis, Mo.). The plates were developed with Sure Blue™ (Kirkegaard and Perry) chromogenic reagent and the reaction was terminated by adding Stop Solution (Kirkegaard and Perry). The color change was measured on a Ceres 900 HDI Spectrophotometer (Bio-Tek Instruments).
(§2) In all instances, the levels of IL-12 and IL-6 in the cell culture supernatants were calculated from the standard curve constructed under the same experimental conditions for IL-112 and IL-6, respectively. The levels of IL-10, IFN-gamma and TNF-α in the cell culture supernatants were calculated from the standard curve constructed under the same experimental conditions for IL-10, IFN-gamma and TNF-α, respectively.

Data set [3] relates to human PBMC. The experiment in a line: Cytokine secretion in human PBMC cultures (sandwich ELISA). Type of data set: cell-based. As to the method: as §1
Human peripheral blood mononuclear cells (PBMCs) were isolated from peripheral blood of healthy volunteers by Ficoll-Paque density gradient centrifugation (Histopaque-1077, Sigma, St. Louis, Mo.). Briefly, heparinized blood was layered onto the Histopaque-1077 (equal volume) in a conical centrifuge and centrifuged at 400×g for 30 minutes at room temperature. The buffy coat, containing the mononuclear cells, was removed carefully and washed twice with isotonic phosphate buffered saline (PBS) by centrifugation at 250×g for 10 minutes. The resulting cell pellet was then resuspended in RPMI 1640 medium containing L-glutamine (MediaTech, Inc., Hemdon, Va.) and supplemented with 10% heat inactivated FCS and penicillin-streptomycin (100 U/ml). Cells were cultured in 24 well plates for different time periods at 1×10^6 cells/ml/well in the presence or absence of oligonucleotides. At the end of the incubation period, supernatants were harvested and stored frozen at −70° C. until assayed for various cytokines including IL-6 (BD Pharmingen, San Diego, Calif.), IL-10 (BD Pharmingen), IL-12 (BioSource International, Camarillo, Calif.), IFN-α (BioSource International) and -γ(BD Pharmingen) and TNF-α(BD Pharmingen) by sandwich ELISA.
as §2

The mark [4] stands for this setting: Intraperitoneal (i.p), 10 mg/kg.

For the substance “5′-CTATCTCACCTTCTCTGT-3′ (DNA, backbone not given here) [Non-CpG, reference compound]”, the “Serum IL-12 induction” value in data set [1] (10 mg/kg i.p, s.c or i.m) was “insignificant”. Besides, the “Serum IL-6 induction” value in data set [1] (10 mg/kg, all three routes of administration) was “insignificant”. Further, the “IL-12 (serum)” value was determined as 1.6 ± 0.07 ng/mL in data set [1] (Intramuscular (i.m), 10 mg/kg); 0.86 ± 0.5 ng/mL in data set [1] (setting [4]); 1.7 ± 0.04 ng/mL in data set [1] (Subcutaneous (s.c), 10 mg/kg). Also, the “IL-6 (serum)” value in data set [1] (setting [4]) was 0.7 ± 0.3 ng/mL.
In data set [2] (3 μg/mL, Table 10), “5′-CTATCTGTCGTTCTCTGT-3′ (phosphorothioate, further chemistry not given here) [Oligo 25, 18mer (PS)]” had an IL-6 of 339 pg/mL and an IL-12 of 379 pg/mL. In data set [3] (donor 1 (D1)), the IFN-γ was 125 pg/mL, the IL-6 amounted to 3077 pg/mL, the IL-10 stood at 37 pg/mL and the IL-12 was found to be 184 pg/mL. The TNF-α in data set [3] (donor 1 (D1)) is on record as 537 pg/mL. In data set [3] (donor 2 (D2)), this substance yielded an IFN-γ of 84 pg/mL, an IL-6 of 5369 pg/mL, an IL-10 of 88 pg/mL and an IL-12 of 332 pg/mL.
In data set [2] (@ 3 μg/mL, Table 9), 5′-CTCACTTTCGTTCTCTGT-3′ [Oligo 51] had an IL-6 of 348 pg/mL and an IL-12 of 404 pg/mL.
In data set [2] (@ 3 μg/mL, Table 9), “Immunomer 57: SEQ ID NO: 32, 11mer (DNA TCTTTNGTTCT; listed as DNA, chemistry not fully specified)” had an IL-6 of 365 pg/mL and an IL-12 of 591 pg/mL.
For “Immunomer 58: SEQ ID NO: 33, 11mer (DNA TCTTTCNTTCT; listed as DNA, chemistry not fully specified)” the same measures were 283 pg/mL and 303 pg/mL.
Consider “Immunomer 61: SEQ ID NO: 34, 11mer (DNA TCTGTNGTTCT; listed as DNA, chemistry not fully specified)”, for which, in data set [2] (3 μg/mL, Table 10), the IL-6 was 470 pg/mL and the IL-12 is listed as 1127 pg/mL.
Turning to “Immunomer 62: SEQ ID NO: 35, 11mer (DNA TCTGTCNTTCT; listed as DNA, chemistry not fully specified)”, in data set [2] (3 μg/mL, Table 10), the IL-6 is 296 pg/mL and the IL-12 worked out at 787 pg/mL.
In data set [2] (3 μg/mL, Table 11), “Immunomer 65: SEQ ID NO: 4, 18mer (DNA CTATCTGANGTTCTCTGT; listed as DNA, chemistry not fully specified)” registered an IL-6 of 192 pg/mL and an IL-12 of 443 pg/mL.
For “Immunomer 66: SEQ ID NO: 5, 18mer (DNA CTATCTGACNTTCTCTGT; listed as DNA, chemistry not fully specified)” the same measures were 464 pg/mL and 627 pg/mL.
In data set [2] (3 μg/mL, Table 11), “Immunomer 67: SEQ ID NO: 6, 14mer (DNA CTGANGTTCTCTGT; listed as DNA, chemistry not fully specified)” returned an IL-6 of 152 pg/mL and an IL-12 of 548 pg/mL.
For “Immunomer 68: SEQ ID NO: 7, 14mer (DNA CTGACNTTCTCTGT; listed as DNA, chemistry not fully specified)”, in that order: 1020 pg/mL and 1052 pg/mL.
In data set [2] (3 μg/mL, Table 11), “Immunomer 69: SEQ ID NO: 36, 11mer (DNA TCTGANGTTCT; listed as DNA, chemistry not fully specified)” had an IL-6 of 2724 pg/mL and an IL-12 of 2050 pg/mL.
Turning to “Immunomer 70: SEQ ID NO: 24, 11mer (DNA TCTGACNTTCT; listed as DNA, chemistry not fully specified)”, in data set [2] (3 μg/mL, Table 11), the IL-6 turned out to be 1741 pg/mL and the IL-12 worked out at 1780 pg/mL.
As for “Immunomer 73: SEQ ID NO: 37, 10mer (DNA CTGACGTTCT; listed as DNA, chemistry not fully specified)”, the IL-12 in data set [2] (0.3 μg/mL, Table 12) was 697 pg/mL. The IL-6 in data set [2] (1 μg/mL, Table 12) was found to be 1454 pg/mL.
For “Immunomer 74: SEQ ID NO: 37, 10mer (DNA CTGACGTTCT; DNA, backbone and methylation of C not given here; immunomer: two 10mer chains joined by non-nucleotidic linker, linker varies, further chemistry not fully specified)” the same measures were 1162 pg/mL and 669 pg/mL.
The substance “Immunomer 75: SEQ ID NO: 37, 10mer (DNA CTGACGTTCT; DNA, backbone and methylation of C not given here; immunomer: two 10mer chains joined by non-nucleotidic linker, linker varies, further chemistry not fully specified)” yielded an IL-12 in data set [2] (0.3 μg/mL, Table 12) of 1074 pg/mL. In data set [2] (1 μg/mL, Table 12), this substance had an IL-6 of 1375 pg/mL.
For “Immunomer 76: SEQ ID NO: 37, 10mer (DNA CTGACGTTCT; DNA, backbone and methylation of C not given here; immunomer: two 10mer chains joined by non-nucleotidic linker, linker varies, further chemistry not fully specified)”, in that order: 563 pg/mL and 705 pg/mL.
For the substance “Immunomer 77: SEQ ID NO: 37, 10mer (DNA CTGACGTTCT; DNA, backbone and methylation of C not given here; immunomer: two 10mer chains joined by non-nucleotidic linker, linker varies, further chemistry not fully specified)”, the IL-12 in data set [2] (0.3 μg/mL, Table 12) worked out at 264 pg/mL. This substance also displayed an IL-6 in data set [2] (1 μg/mL, Table 12) of 543 pg/mL.
For “Immunomer 78: SEQ ID NO: 37, 10mer (DNA CTGACGTTCT; DNA, backbone and methylation of C not given here; immunomer: two 10mer chains joined by non-nucleotidic linker, linker varies, further chemistry not fully specified)”, in that order: 1750 pg/mL and 2258 pg/mL.
In turn, “Immunomer 79: SEQ ID NO: 37, 10mer (DNA CTGACGTTCT; listed as DNA, chemistry not fully specified)” had an IL-12 in data set [2] (0.3 μg/mL, Table 12) of 2255 pg/mL. Besides, the IL-6 in data set [2] (1 μg/mL, Table 12) was 2034 pg/mL.
For “Immunomer 80: SEQ ID NO: 37, 10mer (DNA CTGACGTTCT; listed as DNA, chemistry not fully specified)” the same measures were 1493 pg/mL and 1197 pg/mL.
For the substance “Immunomer 81: SEQ ID NO: 37, 10mer (DNA CTGACGTTCT; listed as DNA, chemistry not fully specified)”, in data set [2] (0.3 μg/mL, Table 12), the IL-12 was found to be 3625 pg/mL. The IL-6 in data set [2] (1 μg/mL, Table 12) was 2642 pg/mL.
For “Immunomer 82: SEQ ID NO: 37, 10mer (DNA CTGACGTTCT; listed as DNA, chemistry not fully specified)”, the IL-12 in data set [2] (0.3 μg/mL, Table 12) is listed as 4248 pg/mL. The substance also showed an IL-6 in data set [2] (1 μg/mL, Table 12) of 2988 pg/mL.
For “Immunomer 83: SEQ ID NO: 37, 10mer (DNA CTGACGTTCT; listed as DNA, chemistry not fully specified)” the same measures were 1241 pg/mL and 1964 pg/mL.
